Source: publication PMC7897990, “TriTOX: A novel Trichomonas vaginalis assay platform for high-throughput screening of compound libraries” (International Journal for Parasitology: Drugs and Drug …, 2021)
Where two headings read alike, the source gives them in different places. Starred links: 1 amine or outer side, 2 acyl side, 3 side chain; linkers in the order of their positions; H or OH if unused. Positions of bridges follow the written chain, without caps; N, C: chain ends. Non-standard residues stand in square brackets, D forms with d. Residues, ends and D or L forms follow the SMILES beside them. *: point of attachment. hTyr(3S-OH,4S-OH,3'-OSO3H) = N[C@H](C(=O)O)[C@H](O)[C@@H](O)c1ccc(O)c(OS(=O)(=O)O)c1; Orn(4R-OH,5R-OH) = O=C([C@H](C[C@@H](O)[C@@H](O)N[*:3])N[*:1])[*:2]; Pro(3S-OH,4S-Me) = C[C@H]1CN[C@H](C(=O)O)[C@H]1O; Gln(3R-OH) = NC(=O)C[C@@H](O)[C@H](N)C(=O)O; Palmitoyl = CCCCCCCCCCCCCCCC(=O)*; Hyp = O=C(O)[C@@H]1C[C@@H](O)CN1

Columns and labels:
[1] = tested on: Trichomonas vaginalis G3 trophozoites
[2] = tested on: nontumorigenic neonatal foreskin fibroblast (NFF) cell line
[3] = HTS, parasite screen at 1 µg/mL, replicate 1
[4] = HTS, parasite screen at 1 µg/mL, replicate 1, raw absorbance
[5] = HTS, parasite screen at 1 µg/mL, replicate 2
[6] = HTS, parasite screen at 1 µg/mL, replicate 2, raw absorbance

SMILES	T.vaginalis_%inb_Rep1 [1, 3] [%]	T.vaginalis_Absorbance_Rep1 [1, 4]	T.vaginalis_%inb_Rep2 [1, 5] [%]	T.vaginalis_Absorbance_Rep2 [1, 6]	NFF_Activity ([2]; NFF_NS1 screen at 5 µg/mL)	T.vaginalis_%inb_Rep1 [1] [%]	T.vaginalis_%inb_Rep2 [1] [%]	T.vaginalis_Absorbance_Rep1 [1]	T.vaginalis_Absorbance_Rep2 [1]	NFF_Activity [2]
CC(=O)O[C@@H]1[C@@H]2O[C@H]2[C@@](C)(O)C(=O)[C@@H](C)C/C=C\[C@H]2[C@H](O)C(C)=C(C)[C@H]3[C@H](Cc4ccccc4)NC(=O)[C@@]123 [Epoxycytochalasin C, 19,20-]	12.33	0.938	16.20	0.844	I (otherwise these were reported as inactive (I))	–	–	–	–	–
C=C1[C@@H](C)[C@H]2[C@H](Cc3ccccc3)NC(=O)[C@]23[C@H](OC(C)=O)[C@@H]2O[C@H]2[C@@](C)(O)C(=O)[C@@H](C)C/C=C\[C@H]3[C@@H]1O [Epoxycytochalasin D, 19,20-]	12.71	0.945	12.22	0.789	I (otherwise these were reported as inactive (I))	–	–	–	–	–
CC[C@H](C)[C@H]1O[C@]2(C=C[C@@H]1C)C[C@@H]1C[C@@H](C/C=C(\C)[C@@H](O[C@H]3C[C@H](OC)[C@@H](O[C@H]4C[C@H](OC)[C@H](NC(C)=O)[C@H](C)O4)[C@H](C)O3)[C@@H](C)/C=C/C=C3\CO[C@@H]4[C@H](O)C(C)=C[C@@H](C(=O)O1)[C@]34O)O2 [Eprinomectin B1a]	13.46	0.959	14.17	0.816	I (otherwise these were reported as inactive (I))	–	–	–	–	–
CO[C@H]1C[C@H](O[C@H]2[C@H](C)O[C@@H](O[C@@H]3/C(C)=C/C[C@@H]4C[C@@H](C[C@]5(C=C[C@H](C)[C@@H](C(C)C)O5)O4)OC(=O)[C@@H]4C=C(C)[C@@H](O)[C@H]5OC/C(=C\C=C\[C@@H]3C)[C@]54O)C[C@@H]2OC)O[C@@H](C)[C@H]1NC(C)=O [Eprinomectin B1b]	–	–	–	–	–	14.00	14.75	0.969	0.824	I (key: active (A) compounds having >25% inhibitory activity; otherwise these were reported as inactive (I))
C/C=C/[C@@H]1C=C[C@@H]2C[C@H](C)CC[C@H]2[C@]1(C)/C(O)=C1/C(=O)[C@H](CO)N(C)C1=O [Equisetin]	12.17	0.942	15.65	0.879	I (otherwise these were reported as inactive (I))	–	–	–	–	–
CC[C@H]1OC(=O)[C@H](C)[C@@H](O[C@H]2C[C@@](C)(OC)[C@@H](O)[C@H](C)O2)[C@H](C)[C@@H](O[C@@H]2O[C@H](C)C[C@H]([N+](C)(C)[O-])[C@H]2O)[C@](C)(O)C[C@@H](C)C(=O)[C@H](C)[C@@H](O)[C@]1(C)O [Erythromycin A N-oxide]	6.03	0.821	9.83	0.756	I (otherwise these were reported as inactive (I))	–	–	–	–	–
CC[C@H]1OC(=O)[C@H](C)[C@@H](O[C@H]2C[C@@](C)(OC)[C@@H](O)[C@H](C)O2)[C@H](C)[C@@H](O[C@@H]2O[C@H](C)C[C@H](N(C)C)[C@H]2O)[C@@]2(C)CC(C)=C(O2)[C@H](C)[C@@H](O)[C@]1(C)O [Erythromycin A enol ether]	5.17	0.805	18.87	0.881	I (otherwise these were reported as inactive (I))	–	–	–	–	–
CC[C@H]1OC(=O)[C@H](C)[C@@H](O[C@H]2C[C@@](C)(OC)[C@@H](O)[C@H](C)O2)[C@H](C)[C@@H](O[C@@H]2O[C@H](C)C[C@H](N(C)C)[C@H]2O)[C@](C)(O)C[C@@H](C)C(=NO)[C@H](C)[C@@H](O)[C@]1(C)O [Erythromycin A oxime]	3.82	0.78	4.19	0.678	I (otherwise these were reported as inactive (I))	–	–	–	–	–
CC[C@H]1OC(=O)[C@H](C)[C@@H](O[C@H]2C[C@@](C)(OC)[C@@H](O)[C@H](C)O2)[C@H](C)[C@@H](O[C@@H]2O[C@H](C)C[C@H](N(C)C)[C@H]2O)[C@](C)(O)C[C@@H](C)C(=O)[C@H](C)[C@@H](O)[C@]1(C)O [Erythromycin A]	5.27	0.806	3.78	0.694	I (otherwise these were reported as inactive (I))	–	–	–	–	–
CC[C@H]1OC(=O)[C@H](C)[C@@H](O[C@H]2C[C@@](C)(O)[C@@H](O)[C@H](C)O2)[C@H](C)[C@@H](O[C@@H]2O[C@H](C)C[C@H](N(C)C)[C@H]2O)[C@](C)(O)C[C@@H](C)C(=O)[C@H](C)[C@@H](O)[C@]1(C)O [Erythromycin C]	5.17	0.805	6.87	0.715	I (otherwise these were reported as inactive (I))	–	–	–	–	–
Cc1cc(=O)c(O)cc2c1C[C@@H]1CC(C)(C)/C=C/C[C@@]3(C)Oc4cc(O)c(=O)cc(C)c4C[C@@H]3C[C@@H](O)[C@]1(C)O2 [Eupenifeldin]	14.05	0.97	13.74	0.81	A (active (A) compounds having >25% inhibitory activity)	–	–	–	–	–
C[C@@H](O)[C@@H]1NC(=O)[C@@H](N)C[C@@H](O)[C@@H](O)NC(=O)[C@@H]2[C@@H](O)[C@@H](C)CN2C(=O)[C@H]([C@H](O)CC(N)=O)NC(=O)[C@H]([C@H](O)[C@@H](O)c2ccc(O)c(OS(=O)(=O)O)c2)NC(=O)[C@@H]2C[C@@H](O)CN2C1=O [FR 179642] (H-[Orn(4R-OH,5R-OH)]T[Hyp][hTyr(3S-OH,4S-OH,3'-OSO3H)][Gln(3R-OH)][Pro(3S-OH,4S-Me)]; lactam 1-C)	12.98	0.95	14.17	0.816	I (otherwise these were reported as inactive (I))	–	–	–	–	–
CCCCCCCCCCCCCCCC(=O)N[C@H]1C[C@@H](O)[C@@H](O)NC(=O)[C@@H]2[C@@H](O)[C@@H](C)CN2C(=O)[C@H]([C@H](O)CC(N)=O)NC(=O)[C@H]([C@H](O)[C@@H](O)c2ccc(O)c(OS(=O)(=O)O)c2)NC(=O)[C@@H]2C[C@@H](O)CN2C(=O)[C@H]([C@@H](C)O)NC1=O [FR 901379] (Palmitoyl-[Orn(4R-OH,5R-OH)]T[Hyp][hTyr(3S-OH,4S-OH,3'-OSO3H)][Gln(3R-OH)][Pro(3S-OH,4S-Me)]; lactam 1-C)	12.55	0.942	13.45	0.806	I (otherwise these were reported as inactive (I))	–	–	–	–	–
COc1cc(/C=C/C(=O)O)ccc1O [Ferulic acid]	13.69	0.972	12.64	0.832	I (otherwise these were reported as inactive (I))	–	–	–	–	–
CCCCCC[C@H]1C(=O)O[C@H](C)[C@@H](O)/C=C/C=C/C=C/C=C/C=C(\C)[C@@H](O)C[C@H](O)C[C@H](O)C[C@H](O)C[C@H](O)C[C@H](O)C[C@@H]1O [Filipin II]	13.79	0.965	25.09	0.967	I (otherwise these were reported as inactive (I))	–	–	–	–	–
CS(=O)(=O)c1ccc([C@@H](O)[C@H](N)CF)cc1.Cl [Florfenicol amine HCl]	15.67	1	15.11	0.829	I (otherwise these were reported as inactive (I))	–	–	–	–	–
COc1ccc2c3c([nH]c2c1)[C@H](C=C(C)C)N1C(=O)[C@@H]2CCCN2C(=O)[C@@H]1C3 [Fumitremorgin C]	12.68	0.952	4.11	0.699	I (otherwise these were reported as inactive (I))	–	–	–	–	–
CCCC[C@@H](C)[C@@H](OC(=O)C[C@@H](CC(=O)O)C(=O)O)[C@H](C[C@@H](C)C[C@H](O)CCCC[C@@H](O)C[C@H](O)[C@H](C)N)OC(=O)C[C@@H](CC(=O)O)C(=O)O [Fumonisin B1]	12.98	0.958	14.05	0.854	I (otherwise these were reported as inactive (I))	–	–	–	–	–
CCCC[C@@H](C)[C@@H](OC(=O)C[C@@H](CC(=O)O)C(=O)O)[C@H](C[C@@H](C)CCCCCC[C@@H](O)C[C@H](O)[C@H](C)N)OC(=O)C[C@@H](CC(=O)O)C(=O)O [Fumonisin B2]	14.71	0.992	10.52	0.799	I (otherwise these were reported as inactive (I))	–	–	–	–	–
C[C@H]1CC[C@H]2[C@@H](C=C[C@@H]3[C@H]4[C@@H](C)O[C@]5(O)[C@@H](CO)N(C)C(=O)[C@]45C(=O)[C@@]32C)C1 [Fusarisetin A]	14.05	0.979	15.01	0.869	I (otherwise these were reported as inactive (I))	–	–	–	–	–
CC1=CC(O/C=C2\CCOC2=O)OC1=O (centres unmarked) [GR5]	9.60	0.948	13.10	0.852	I (otherwise these were reported as inactive (I))	–	–	–	–	–
CC1=C[C@H](O/C=C2/C(=O)O[C@@H]3c4ccccc4C[C@H]23)OC1=O [GR24]	14.00	0.978	4.49	0.705	I (otherwise these were reported as inactive (I))	–	–	–	–	–
